Assay results: patent US20050037090A1, “Combination therapy including a cyclooxygenase-2 inhibitor and an antineoplastic agent” (priority 1998, published 2005)
Like-named read-outs stand apart in the source and are kept apart here.

Experiments:
[1] = system: HT-29 human colon cancer cells; details: mice with HT-29 tumors; 5-FU i.p. 50 mg/kg on days 12, 13, 14, 15; celecoxib in the diet
Method: (§1) Mice were injected subcutaneously in the left paw (1×10^6 tumor cells suspended in 30% Matrigel) and tumor volume was evaluated using a phlethysmometer twice a week for 30-60 days. Implantation of human colon cancer cells (HT-29) into nude mice produces tumors that will reach 0.6-2 ml between 30-50 days. […] The data are expressed as the mean+/−SEM. Student's and Mann-Whitney tests were used to assess differences between means using the InStat software package.
(§2) The efficacy of both agents were determined by measuring tumor volume.

[2] = system: HT-29 human colon cancer cells; assay: HT-29 Model, third assay (C): tumor volume, 5-FU days 14-17 with or without celecoxib or valdecoxib in the diet (Table 21); format: in vivo, mice; details: for reduction in tumor volume: mice with HT-29 tumors, 5-FU i.p. 50 mg/kg days 14 through 17, celecoxib 1600 ppm, valdecoxib 160 ppm in the diet
Method: as §1, §2

[3] = system: HT-29 human colon cancer cells
Method: as §1, §2

Lewis Lung tumors = assay: Lewis Lung Model: tumor volume and lung metastasis in mice; format: in vivo
Method: Mice were injected subcutaneously in the left paw (1×10^6 tumor cells suspended in 30% Matrigel) and tumor volume was evaluated using a phlethysmometer twice a week for 30-60 days. […] The data are expressed as the mean+/−SEM. Student's and Mann-Whitney tests were used to assess differences between means using the InStat software package. […] Analysis of lung metastasis was done in all the animals by counting metastasis in a stereomicroscope and by histochemical analysis of consecutive lung sections.

[4] = system: HT-29 human colon cancer cells; assay: HT-29 Model, fourth assay (D): celecoxib 10, 40 or 160 ppm in the diet from day 10 (Table 22); format: in vivo, mice; details: celecoxib 10, 40 or 160 ppm in the diet beginning at day 10
Method: as §1

SMILES: O=c1[nH]cc(F)c(=O)[nH]1 [5-FU, 5-fluorouracil]
- reduction of tumor volume [1]: 61%
- reduction in tumor volume [2]: 35%

SMILES: COc1ccc2c(c1)c(CC(=O)O)c(C)n2C(=O)c1ccc(Cl)cc1 [indomethacin]
- formation of lung metastasis ([3]; mice with HT-29 tumors): ineffective
- inhibition of tumor formation ([3]; mouse, in vivo, 2 mg/kg/day): 77%

SMILES: NS(=O)(=O)c1ccc(-n2nc(C(F)(F)F)cc2-c2ccc(Cl)cc2)cc1 [SC-58236]
- formation of lung metastasis ([3]; mice with HT-29 tumors): completely inhibited
- reduction of tumor volume ([3]; mice with HT-29 tumors, COX-2 inhibitor in the diet): 89%

SMILES: Cc1ccc(-c2cc(C(F)(F)F)nn2-c2ccc(S(N)(=O)=O)cc2)cc1 [celecoxib, 4-[5-(4-methylphenyl)-3-(trifluoromethyl)-1H-pyrazol-1-yl]-benzenesulfonamide]
- size of the metastasic lesions in the lung, histopathological analysis (Lewis Lung tumors; celecoxib in the diet): dose-dependently reduced
- reduction of surface metastasis (lung) (Lewis Lung tumors; celecoxib in the diet 480-3200 ppm): more than 50%
- effect on lung metastasis (Lewis Lung tumors; celecoxib in the diet, lower dose of 160 ppm): did not affect
- reduction of tumor volume [1]: 68%
- effect on HT-29 tumors, dose dependence [4]: approximate dose dependent effect
- Tumor Volume ([2]; celecoxib 160 ppm in diet, day 11): 0.05 mL
- Tumor Volume ([2]; celecoxib 160 ppm in diet, day 14): 0.13 mL
- Tumor Volume ([2]; celecoxib 160 ppm in diet, day 18): 0.17 mL
- Tumor Volume ([2]; celecoxib 160 ppm in diet, day 21): 0.2 mL
- Tumor Volume ([2]; celecoxib 160 ppm in diet, day 28): 0.25 mL
- Tumor Volume ([2]; celecoxib 160 ppm in diet, day 35): 0.35 mL
- Tumor Volume ([2]; celecoxib 160 ppm in diet, day 42): 0.52 mL
- reduction in tumor volume [2]: 52%

SMILES: Cc1onc(-c2ccccc2)c1-c1ccc(S(N)(=O)=O)cc1 [valdecoxib, 4-(5-methyl-3-phenylisoxazol-4-yl)benzenesulfonamide]
- reduction in tumor volume [2]: 69%
- Tumor Volume ([2]; valdecoxib 160 ppm in diet, day 11): 0.06 mL
- Tumor Volume ([2]; valdecoxib 160 ppm in diet, day 14): 0.13 mL
- Tumor Volume ([2]; valdecoxib 160 ppm in diet, day 18): 0.17 mL
- Tumor Volume ([2]; valdecoxib 160 ppm in diet, day 21): 0.2 mL
- Tumor Volume ([2]; valdecoxib 160 ppm in diet, day 28): 0.25 mL
- Tumor Volume ([2]; valdecoxib 160 ppm in diet, day 35): 0.32 mL
- Tumor Volume ([2]; valdecoxib 160 ppm in diet, day 42): 0.36 mL
